Test results published in patent EP0428423A2, “Aryloxy alkyl benzenes, processes for their preparation and pharmaceutical compositions containing them” (LIPHA S.A., priority 1989, dated 1991).

Assays:
[1] = system: rats mâles SHR (souche OKAMOTO); assay: Antihypertensive action in the non-anaesthetised SHR rat (systolic blood pressure, sphygmomanometric method); format: in vivo; settings: A = Aigu, 100 mg/kg PO, 24 h after dosing
Source text: L'étude a été effectuée sur des lots de rats mâles SHR (souche OKAMOTO) âgés de 16 semaines. La pression artérielle systolique est déterminée par la méthode sphygmomanométrique (électro sphygmogra- phe NARCO biosystems type PE 300). Les mesures de tension sont réalisées 24 heures après administration d'un composé de formule générale I, la pression artérielle systolique est calculée à partir de la moyenne de 6 à 8 mesures.

[2] = system: plasmas riches en plaquettes provenant de sang de rat; assay: Platelet anti-aggregation in vitro, ADP-induced (Born aggregometer); format: cell-based; settings: in vitro, aggregating agent ADP, rat platelet-rich plasma, 37°; M not defined in the text; mM printed only in the TICLOPIDINE line
Method: Les études ont été réalisées sur des plasmas riches en plaquettes provenant de sang de rat, l'agrégation étant induite par addition d'acide Adénosine diphosphorique. Les courbes néphélométriques d'agrégation sont obtenues en utilisant un agrégomètre de type BORN, le plasma étant placé en incubation à 37° avec agitation continue de 1100 t/mn (cf. BORN G.V.R et CROSS J. - J. Physiol. 168 (1962) 178.

SOURIS = assay: Diuretic activity in the mouse (hourly urine volume, sodium and potassium assay); format: in vivo; settings: Mus musculus, po; S = SOURIS; diuretic activity; read-out: Dose minimale active
Source text: (§1) d'urine sont déterminés toutes les heures. Le dosage de sodium et du potassium est effectué par spectrophotométrie.

COTRANSPORT Na-K = target: T1, COTRANSPORT Na-K (Homo sapiens, UniProt P55011); assay: Na-K cotransport of human erythrocytes; format: cell-based, ERYTHROCYTES HUMAINS; settings: human erythrocytes; read-out: EFFET SUR LE COTRANSPORT Na-K IC 50
T1 construct: systèmes de transport du sodium et du potassium des érythrocytes humains; endogenous in cells; host or cells: human erythrocytes
T1 sequence (P55011 1-1212): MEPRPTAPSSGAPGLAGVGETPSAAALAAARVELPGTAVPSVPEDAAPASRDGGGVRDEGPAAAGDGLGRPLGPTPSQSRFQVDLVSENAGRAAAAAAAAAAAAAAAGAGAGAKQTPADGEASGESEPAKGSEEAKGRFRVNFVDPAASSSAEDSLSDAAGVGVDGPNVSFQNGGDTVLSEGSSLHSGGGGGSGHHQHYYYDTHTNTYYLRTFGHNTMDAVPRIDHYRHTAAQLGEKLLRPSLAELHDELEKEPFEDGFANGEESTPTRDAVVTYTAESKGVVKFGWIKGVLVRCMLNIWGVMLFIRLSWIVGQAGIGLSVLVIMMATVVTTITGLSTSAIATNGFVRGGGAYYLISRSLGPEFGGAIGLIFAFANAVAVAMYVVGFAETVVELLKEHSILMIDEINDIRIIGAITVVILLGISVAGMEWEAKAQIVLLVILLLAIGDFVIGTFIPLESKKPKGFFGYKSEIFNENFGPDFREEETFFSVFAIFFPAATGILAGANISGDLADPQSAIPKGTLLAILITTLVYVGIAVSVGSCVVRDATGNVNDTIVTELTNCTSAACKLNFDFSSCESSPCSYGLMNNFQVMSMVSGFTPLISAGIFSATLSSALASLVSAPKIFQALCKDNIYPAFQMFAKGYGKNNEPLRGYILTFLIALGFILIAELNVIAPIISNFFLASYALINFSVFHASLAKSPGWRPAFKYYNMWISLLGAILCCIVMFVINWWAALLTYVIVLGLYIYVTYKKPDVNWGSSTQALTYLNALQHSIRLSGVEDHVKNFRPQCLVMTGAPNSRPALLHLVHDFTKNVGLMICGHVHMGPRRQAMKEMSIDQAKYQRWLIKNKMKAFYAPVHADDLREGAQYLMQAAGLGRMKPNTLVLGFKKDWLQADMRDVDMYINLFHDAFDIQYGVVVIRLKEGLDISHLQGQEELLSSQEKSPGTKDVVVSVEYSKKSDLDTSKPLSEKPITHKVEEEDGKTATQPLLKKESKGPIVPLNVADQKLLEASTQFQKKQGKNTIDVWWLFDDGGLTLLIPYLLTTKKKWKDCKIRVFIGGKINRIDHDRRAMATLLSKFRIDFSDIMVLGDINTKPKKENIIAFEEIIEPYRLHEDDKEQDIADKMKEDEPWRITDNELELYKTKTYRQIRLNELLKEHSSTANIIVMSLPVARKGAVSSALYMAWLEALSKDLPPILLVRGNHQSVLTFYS
Source text: Cet effet a été étudié selon la méthodologie décrite par G. GARAY et coll. dans Naunyn-Schmidberg's Arch. Pharmakol. […] Pharm.

RAT = assay: Diuretic activity in the rat (hourly urine volume, sodium and potassium assay); format: in vivo; settings: po; R = RAT; diuretic activity; read-out: Dose minimale active
Source text: as §1

With Cc1ccc(O)c(CCOc2ccccc2)c1 [ex 36] the “Variation de l'effet anti-hyper-tenseur 24 heures après produit” value [1] was “Non actif”, the “M à 50” value [2] was “inactif” and the minimal effective dose (SOURIS) was 100 mg/kg. For the same compound, the IC50 (COTRANSPORT Na-K) was > 600 µM and the minimal effective dose (RAT) was 100 mg/kg.
